Results on 17 compounds are retold here after ChEMBL document CHEMBL4184304, “Design and synthesis of novel and potent GPR119 agonists with a spirocyclic structure” (Bioorg Med Chem Lett, 2018).

Values after ≈ are worked out from the molar mass of the structure shown.

For series [1], the target named is T1, Glucose-dependent insulinotropic receptor (Homo sapiens) (UniProt Q8TDV5).
T1 sequence (whole entry): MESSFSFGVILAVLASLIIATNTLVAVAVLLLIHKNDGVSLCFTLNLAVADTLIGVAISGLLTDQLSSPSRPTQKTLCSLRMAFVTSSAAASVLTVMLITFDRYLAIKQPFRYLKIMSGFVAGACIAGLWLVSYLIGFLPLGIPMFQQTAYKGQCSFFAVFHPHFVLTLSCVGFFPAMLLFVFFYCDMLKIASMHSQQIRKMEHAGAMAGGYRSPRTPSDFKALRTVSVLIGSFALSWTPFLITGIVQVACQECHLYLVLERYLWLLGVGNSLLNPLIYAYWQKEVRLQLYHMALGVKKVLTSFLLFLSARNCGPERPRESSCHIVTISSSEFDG
The experiment in a line: Agonist activity at human GPR119 expressed in HEK293 cells assessed as increase in intracellular cAMP level after 30 mins relative to oleoylethanolamide. In kind it is functional, cell-based.

For series [2], the target named is T2, Glucose-dependent insulinotropic receptor (Homo sapiens, UniProt Q8TDV5).
T2 sequence (Q8TDV5 whole entry): T1 sequence (whole entry)
Put plainly: Agonist activity at human GPR119 expressed in HEK293 cells assessed as increase in intracellular cAMP level after 30 mins. In kind it is functional, cell-based.

Another series addresses Cytochrome P450 2C19 (Homo sapiens, UniProt P33261). The experiment in a line: Inhibition of CYP2C19 (unknown origin). In kind it is ADME.
Series [3] is described as follows: Solubility in fed state simulated intestinal fluid. In kind it is physicochemical.
A further series concerns the target Cytochrome P450 2C9 (Homo sapiens, UniProt P11712). Put plainly: Inhibition of CYP2C9 (unknown origin). In kind it is ADME.
Another series addresses T3, Cytochrome P450 2C8 (Homo sapiens, UniProt P10632).
T3 sequence (P10632 whole entry): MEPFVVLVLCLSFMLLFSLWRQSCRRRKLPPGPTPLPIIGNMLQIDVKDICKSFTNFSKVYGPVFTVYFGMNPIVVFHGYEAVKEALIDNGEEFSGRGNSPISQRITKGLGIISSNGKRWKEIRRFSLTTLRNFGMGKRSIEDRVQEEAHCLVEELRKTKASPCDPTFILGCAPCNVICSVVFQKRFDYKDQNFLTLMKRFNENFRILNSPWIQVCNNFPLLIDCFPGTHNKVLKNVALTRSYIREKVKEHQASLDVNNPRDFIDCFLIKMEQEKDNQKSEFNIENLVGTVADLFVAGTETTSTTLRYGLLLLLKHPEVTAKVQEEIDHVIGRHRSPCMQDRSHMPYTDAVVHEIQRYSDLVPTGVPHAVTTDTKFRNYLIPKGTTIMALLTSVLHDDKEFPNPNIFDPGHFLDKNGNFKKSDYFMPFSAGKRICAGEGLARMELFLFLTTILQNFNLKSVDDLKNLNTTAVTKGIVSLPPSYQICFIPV
Put plainly: Inhibition of CYP2C8 (unknown origin). In kind it is ADME.

Series [4] has as its system Rattus norvegicus. Put plainly: Antidiabetic activity in Sprague-Dawley rat assessed as glucose concentration-dependent insulin secretion by measuring reduction in blood glucose AUC at 1 mg/kg, po pretreated for 30 mins followed by glucose-challenge measured up to 120 mins by ipGTT relative to control. In kind it is functional. The arrangement: scale not given: the % may be the effect or the level left.

Another series deals with Cytochrome P450 2D6 (Homo sapiens, UniProt P10635). Put plainly: Inhibition of CYP2D6 (unknown origin). In kind it is ADME.
The subject of series [5] is Rattus norvegicus. Put plainly: Antidiabetic activity in Sprague-Dawley rat assessed as glucose concentration-dependent insulin secretion by measuring reduction in blood glucose AUC at 0.3 mg/kg, po pretreated for 30 mins followed by glucose-challenge measured up to 120 mins by ipGTT relative to control. In kind it is functional. Set-up: scale not given: the % may be the effect or the level left.

A further series concerns the target T4, Cytochrome P450 1A2 (Homo sapiens, UniProt P05177).
T4 sequence (P05177 whole entry): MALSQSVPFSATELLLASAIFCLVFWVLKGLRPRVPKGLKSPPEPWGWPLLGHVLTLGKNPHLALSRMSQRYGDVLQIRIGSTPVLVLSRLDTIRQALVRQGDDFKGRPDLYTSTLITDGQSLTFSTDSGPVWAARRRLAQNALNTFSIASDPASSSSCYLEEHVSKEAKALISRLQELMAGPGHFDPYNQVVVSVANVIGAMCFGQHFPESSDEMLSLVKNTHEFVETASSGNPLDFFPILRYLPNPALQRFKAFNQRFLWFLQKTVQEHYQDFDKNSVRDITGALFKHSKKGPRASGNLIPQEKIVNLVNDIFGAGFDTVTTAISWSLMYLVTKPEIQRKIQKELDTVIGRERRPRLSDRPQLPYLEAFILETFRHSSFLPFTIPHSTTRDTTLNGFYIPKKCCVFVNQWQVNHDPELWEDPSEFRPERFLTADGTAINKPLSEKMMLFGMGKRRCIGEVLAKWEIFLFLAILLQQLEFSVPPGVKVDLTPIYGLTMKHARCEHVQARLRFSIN
Put plainly: Inhibition of CYP1A2 (unknown origin). In kind it is ADME.

For a further series, the target named is Cytochrome P450 3A4 (Homo sapiens, UniProt P08684). The experiment in a line: Inhibition of CYP3A4 (unknown origin). In kind it is ADME.
Cytochrome P450 3A4, sequence (P08684 whole entry): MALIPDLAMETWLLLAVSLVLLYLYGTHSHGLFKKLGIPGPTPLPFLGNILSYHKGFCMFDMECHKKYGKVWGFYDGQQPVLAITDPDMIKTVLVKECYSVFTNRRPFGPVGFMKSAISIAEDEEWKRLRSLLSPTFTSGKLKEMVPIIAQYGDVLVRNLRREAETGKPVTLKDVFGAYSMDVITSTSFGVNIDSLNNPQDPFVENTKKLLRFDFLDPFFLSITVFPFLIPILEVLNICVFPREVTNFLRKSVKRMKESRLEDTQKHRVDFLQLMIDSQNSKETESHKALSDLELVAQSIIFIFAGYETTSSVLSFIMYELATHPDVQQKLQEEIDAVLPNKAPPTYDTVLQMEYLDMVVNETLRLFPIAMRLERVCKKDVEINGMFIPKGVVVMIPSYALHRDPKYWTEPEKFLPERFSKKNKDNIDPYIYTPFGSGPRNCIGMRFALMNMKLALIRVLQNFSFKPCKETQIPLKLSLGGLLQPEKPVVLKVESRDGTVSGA

Cytochrome P450 2C19, sequence (P33261 whole entry): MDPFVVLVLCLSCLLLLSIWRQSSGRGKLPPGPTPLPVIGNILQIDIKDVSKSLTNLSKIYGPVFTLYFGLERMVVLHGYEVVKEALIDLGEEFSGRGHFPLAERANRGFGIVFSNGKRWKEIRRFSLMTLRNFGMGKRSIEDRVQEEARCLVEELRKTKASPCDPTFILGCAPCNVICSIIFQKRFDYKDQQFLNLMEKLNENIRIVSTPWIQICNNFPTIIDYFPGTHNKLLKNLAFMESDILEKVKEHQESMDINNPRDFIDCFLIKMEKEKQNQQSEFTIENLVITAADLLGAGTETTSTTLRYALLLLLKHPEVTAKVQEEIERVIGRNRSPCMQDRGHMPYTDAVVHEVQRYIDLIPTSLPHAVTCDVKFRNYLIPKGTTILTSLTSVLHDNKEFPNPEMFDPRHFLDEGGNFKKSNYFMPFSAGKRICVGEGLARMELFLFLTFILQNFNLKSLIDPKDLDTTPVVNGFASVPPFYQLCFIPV
Cytochrome P450 2C9, sequence (P11712 whole entry): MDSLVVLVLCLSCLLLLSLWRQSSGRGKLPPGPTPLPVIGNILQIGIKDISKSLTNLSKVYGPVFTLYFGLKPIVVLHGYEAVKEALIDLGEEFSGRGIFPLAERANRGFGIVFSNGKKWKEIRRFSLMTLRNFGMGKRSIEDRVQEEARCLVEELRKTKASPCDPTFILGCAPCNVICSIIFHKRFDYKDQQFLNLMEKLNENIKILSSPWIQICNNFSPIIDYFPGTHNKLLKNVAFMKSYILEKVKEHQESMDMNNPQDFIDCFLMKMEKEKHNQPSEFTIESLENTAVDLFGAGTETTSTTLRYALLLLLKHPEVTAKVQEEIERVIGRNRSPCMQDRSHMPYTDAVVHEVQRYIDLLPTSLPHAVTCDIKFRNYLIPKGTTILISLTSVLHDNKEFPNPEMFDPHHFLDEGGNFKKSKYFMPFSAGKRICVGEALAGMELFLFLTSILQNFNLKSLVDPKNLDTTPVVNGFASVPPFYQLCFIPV
Cytochrome P450 2D6, sequence (P10635 whole entry): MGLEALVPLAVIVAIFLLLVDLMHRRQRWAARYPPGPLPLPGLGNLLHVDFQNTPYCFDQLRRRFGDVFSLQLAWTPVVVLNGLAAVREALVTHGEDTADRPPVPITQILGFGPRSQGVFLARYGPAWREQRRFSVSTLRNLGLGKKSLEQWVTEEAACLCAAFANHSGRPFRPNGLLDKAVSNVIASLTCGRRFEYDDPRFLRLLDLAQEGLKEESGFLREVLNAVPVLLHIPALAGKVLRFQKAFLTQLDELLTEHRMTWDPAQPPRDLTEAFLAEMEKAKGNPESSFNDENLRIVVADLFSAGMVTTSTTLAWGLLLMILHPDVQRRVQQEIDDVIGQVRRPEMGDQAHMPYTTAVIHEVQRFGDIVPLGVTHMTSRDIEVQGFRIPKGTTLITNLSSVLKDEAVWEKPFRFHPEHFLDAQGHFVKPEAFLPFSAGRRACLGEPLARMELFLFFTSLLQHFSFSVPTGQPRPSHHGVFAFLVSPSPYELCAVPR

With `CN(C)C(=O)c1ccc(OCCCCC[C@H]2CC[C@]3(CCC(C)(C)O3)CC2)cc1`, in series [1], the Activity came to 64%. In [2], the EC50 was determined as 511 nM.

Consider `CC(C)OC(=O)N1CCC(CCCCCOc2ccc(C(=O)N(C)C)cc2)CC1`, for which the IC50 on Cytochrome P450 2C19, at Cytochrome P450 2C9 and on Cytochrome P450 2C8 was below 10000 nM each time. In addition, in series [3], the concentration in solution (solubility) was 222 µM (≈ 89.7 µg/mL). In addition, in series [1], the Activity worked out at 102%. The EC50 in [2] came to 10 nM.

Take `CN(C)C(=O)c1ccc(OCCCCCC2CCN(C(=O)OC(C)(C)C)CC2)cc1`: the solubility in series [3] is 74.2 µM (≈ 31.1 µg/mL). Further, in [1], the Activity amounted to 97%. Further, in series [2], the EC50 is 5 nM.

Regarding `CN(C)C(=O)c1ccc(OCCCCC[C@H]2CC[C@@]3(CC2)CC(C)(C)CCO3)cc1`, in series [1], the Activity amounted to 110%. In series [2], the EC50 came out at 7 nM.

On to `CN(C)C(=O)c1ccc(OCCCCCC2CCC3(CC2)OCCO3)cc1`, for which the Activity in series [1] was 92%. In addition, in [2], the EC50 was 88 nM.

With `CN(C)C(=O)c1ccc(OCCCCC[C@H]2CC[C@]3(CCCCO3)CC2)cc1`, the Activity in series [1] worked out at 96%. In addition, the EC50 in [2] turned out to be 36 nM.

With `CN(C)C(=O)c1ccc(OCCCCC[C@H]2CC[C@]3(CCCO3)CC2)cc1`, in series [1], the Activity stood at 84%. In series [2], the EC50 is 95 nM.

`CN(C)C(=O)c1ccc(OCCCCC[C@H]2CC[C@@]3(CC2)CC(C)(C)CO3)cc1`: the Activity in series [1] is 99%. Also, the EC50 in [2] stood at 4 nM.

`CC(C)(C)OC(=O)N1CCC(CCCOc2ccc(S(C)(=O)=O)cc2)CC1`: the Activity in [1] stood at 106%. The EC50 in [2] was 353 nM.

For `CN(C)C(=O)c1ccc(OCCCCC[C@H]2CC[C@@]3(CCCO3)CC2)cc1`, the Activity in series [1] stood at 89%. Also, in [2], the EC50 worked out at 132 nM.

Turning to `CN(C)C(=O)c1ccc(OCCCCC[C@H]2CC[C@@]3(CCCCO3)CC2)cc1`, the Activity in series [1] amounted to 96%. Besides, the concentration for a half-maximal effect (EC50) in series [2] came out at 21 nM.

On to `CC(C)(C)OC(=O)N1CCC(CCCCCCOc2ccc(S(C)(=O)=O)cc2)CC1`, for which the Activity in series [1] turned out to be 72%. In series [2], the 50% effective concentration (EC50) is 78 nM.

Regarding `CC(C)(C)OC(=O)N1CCC(CCCCOc2ccc(S(C)(=O)=O)cc2)CC1`, the Activity in [1] amounted to 100%. The EC50 in [2] turned out to be 209 nM.

For `CN(C)C(=O)c1ccc(OCCCCCC2CCC3(CC2)OCCCO3)cc1`, in [1], the Activity turned out to be 96%. The EC50 in series [2] worked out at 29 nM.

On to `CN(C)C(=O)c1ccc(OCCCCCC2CCC3(CCCCC3)CC2)cc1`, for which the Activity in series [1] is 91%. Also, the EC50 in series [2] was 27 nM.

In [3], `CC(C)(C)OC(=O)N1CCC(CCCCCOc2ccc(S(C)(=O)=O)cc2)CC1` displayed a solubility of 15.9 µM (≈ 6.77 µg/mL). Further, the Activity in [1] was determined as 93%. Besides, the EC50 in [2] came to 14 nM.

As for `CN(C)C(=O)c1ccc(OCCCCC[C@H]2CC[C@]3(CC2)COC(C)(C)C3)cc1`, the IC50 against Cytochrome P450 2C19, against Cytochrome P450 2D6, at Cytochrome P450 2C9, on Cytochrome P450 2C8, against Cytochrome P450 1A2 and against Cytochrome P450 3A4 was above 10000 nM throughout. Moreover, the Activity in the series with Rattus norvegicus [4] was 33%; in series [1] it was 104%; with Rattus norvegicus [5], 14%. Further, the concentration in solution in series [3] (solubility) came to 442 µM (≈ 177 µg/mL). The EC50 in series [2] worked out at 4 nM.

Broadly, the EC50 is the midpoint of the concentration-response curve. Usually IC50 stands for the concentration needed to halve the response being measured. One may read the solubility as how much of the substance goes into solution per volume.
